US20110251230A1, “THERAPEUTICS FOR NEUROLOGICAL DISORDERS” (UNIVERSITY OF SHEFFIELD, priority 2008, published 2011)
Where two headings read alike, the source gives them in different places. Blank lines part the entries; values can stand above or below the compound they belong to.

Assays:
[1] = system: Haem oxygenase 1 and NQO1 gene expression in C6 cells; assay: Multiplex/quantitative RT-PCR for NRF2 regulated genes in C6 cells; assay type: cell-based, rat
Procedure: (§1) Quantitative RT-PCR. (Q-PCR) was performed using 25 ng of cDNA, 1× SYBR Green PCR Master Mix (Stratagene) and optimised concentrations of forward and reverse primers (Table 1), in a total volume of 20 μl and in triplicate for each sample. Following denaturation at 95° C. for 10 min, products were amplified by 40 cycles of 95° C. for 15 s and 60° C. for 1 min, on an MX3000P Real Time PCR System (Stratagene). To ensure amplification of a single product the dissociation curve was produced for each amplification. The relative levels of the genes of interest in the samples was determined by normalizing the level of expression to that of gapdh in each of the samples and by using the ddCt calculation (SYBR Green PCR mix and RT-PCR protocol, Applied Biosystems). Overall relative concentrations of the genes of interest were calculated following drug treatment by normalising the data to the cells grown in the vehicle (DMSO).

[2] = system: NQO1 and HO1 transcripts in primary mouse astrocytes from G93A mutant SOD1 transgenic mice; assay: Quantitative RT-PCR of NQO1 and HOX1 in G93A mutant SOD1 primary mouse astrocytes; assay type: cell-based
Procedure: as §1

[3] = system: NSC34 mouse motor neuronal cells; assay: NSC34 oxidative stress assay (serum withdrawal, DCF); settings: for Lowest dose with toxicity: NSC34; for Maximal % reduction in Oxidative stress: NSC34, DCF fluorescence, negative = pro-oxidant
Procedure: (§2) A simple oxidative stress assay was used to determine whether preconditioning with NRF2-ARE inducing drugs could protect against a subsequent oxidative stress insult (serum withdrawal). The NSC34, C6 and 1321N1 cells were plated in 96 well tissue culture plates to achieve 30% confluency. […] Media was then replaced with serum free, phenol free media for 5 hrs. […] Cell survival assay was then performed on the cells as protection is measured as % reduction in DCF signal, therefore data points were excluded where a decrease in cell number was measured.
(§3) Briefly methylthiazolyldiphenyl-tetrazolium bromide (MTT) was added to the cells and a blank well to a final concentration 0.5 mg/ml and incubated at 37° C. for 1-3 hrs depending on the cell line used.

[4] = system: motor neurones (MN) in primary mouse astrocyte/MN co-cultures; assay: Menadione stress in primary mouse astrocyte/motor neurone co-cultures; assay type: cell-based
Procedure: Mouse glial cultures were established from C57BI/6 cortices from 1-2 day old pups. Cortices were dissected out and cells dissociated by trituration following incubation in DNasel, collagenase and trypsin. The incubation and trituration steps were repeated to ensure complete dissociation of cells. Cells were plated at 45,000 cells/cm^2 in DMEM containing 10% FBS, 100 U/ml penicillin, and 100 μg/ml streptomycin. After 24 hours, cultures were washed in PBS and grown for 2-3 weeks until confluent, changing the medium once a week. Confluent glial cultures were enriched for astrocytes by shaking and mild trypsinisation. Enriched astrocytes were grown to confluency and plated onto coverslips coated with poly-D-ornithine (1.5 mg/ml; Sigma, Poole, UK) at 40,000 cells/cm^2, and grown for 1 week. […]
When co-cultures were established for 2 weeks, neuroprotection assays were performed by 24 hrs exposure to drug or vehicle followed by a 6 hour 10 micromolar menadione oxidative stress or glutamate. […] Total MNs were counted by fluorescent microscopy in a 1.5 cm^2 area per coverslip. […] Both vehicle and drug treatments were counted before and after stress treatment, and results were statistically analysed by 2 way anova using Bonferroni post tests.
The co-cultures were then challenged for 6 hours with 10 μM menadione to induce oxidative stress and motor neurones stained and counted. […]

[5] = system: 1321N1 (human) astrocytic line; assay: 1321N1 oxidative stress assay (serum withdrawal, DCF); settings: for Lowest dose with toxicity: 1321N1; for IC50: 1321N1, 24 h pre-treatment, serum withdrawal, DCF; for Maximal % reduction in Oxidative stress: 1321N1, DCF fluorescence
Procedure: as §2, §3

C6 (rat) astrocytic line [6] = assay: C6 oxidative stress assay (serum withdrawal, DCF); settings: for Lowest dose with toxicity: C6; for IC50: C6, 24 h pre-treatment, serum withdrawal, DCF; for Maximal % reduction in Oxidative stress: C6, DCF fluorescence
Procedure: as §2, §3

[7] = system: NRF2-ARE pathway in the CHO 4× ARE-TK cell line; assay: ARE reporter assay in CHO 4×ARE-TK-GFP cell line (GFP induction, EthD1 toxicity); settings: for maximal fold induction: read-out: Average fold GFP induction at maximal response
Procedure: Chinese Hamster Ovary (CHO), NSC34 mouse motor neuronal cells, C6 (rat) and 1321N1 (human) astrocytic lines were routinely maintained in DMEM supplemented with 10% FBS and penicillin/streptomycin. […] These plasmids were transfected into CHO, C6 and 1321N1 cell lines using Lipofectamine 2000 (Invitrogen) and following 10-14 days of selection in 0.5 mg/ml G418 they were expanded and selected for basal eGFP expression using fluorescence activated cell sorting (BD, FACSAria) with two sequential cell sorts for each cell line. These mixed populations of stable transfectants with basal eGFP expression were used in subsequent assays and designated 4×ARE-TK-GFP for the ARE containing line and TK-GFP for the control cell line. […]
Confluent cultures of 4×ARE-TK-GFP CHO or TK-GFP CHO expressing cells in 96 or 384-well tissue-culture plates were treated with drug (0.01-100 µM in triplicate) or vehicle (0.1-1% DMSO) in FCS-free DMEM in triplicate for 24 hours. The media was removed and replaced with the same volume of PBS containing 0.3 μM EthD1. […] Non-linear regression was used to fit a sigmoidal dose-response curve on a semi-Log plot to calculate the EC50 using GraphPad Prism (GraphPad Software). The reporter assay was conducted in a similar fashion in C6 and 1321N1 astrocyte cell lines stably transfected with the 4×ARE-TK-GFP and TK-GFP constructs except that Eth D1 was added directly in the media and read prior to washing the cells once and reading the […] signal. […]
The compounds were applied in triplicate to confluent cells in 96 well plates in serum free medium for 24 hours and the induction of GFP measured in a fluorescence plate reader. […]

[8] = mouse, in vivo, iv
[9] = system: NRF2-ARE pathway in C6 cells; assay: ARE reporter assay in C6 astrocyte cell line; assay type: cell-based, rat
Text: NRF2-ARE Inducing activity of the best hit compounds in neuronal and astrocytic cell lines was investigated. In order to determine whether the differences in protection in astrocytic and motor neuronal cell lines was due to differences in the degree of activation of the NRF2-ARE pathway in these cell types, the NRF2-ARE reporter construct was stably expressed in both the astrocytic (C6) and motor neuronal (NSC34) cell lines. The 17 best hit molecules were then screened in each cell line. We also screened the S [+] enantiomer of apomorphine as it can exist as either an R[−] or S[+] enantiomer. The […] enantiomer has dopamine agonist activity whereas the S[+] enantiomer has lost this activity and so we wanted to determine whether it retains NRF2-ARE inducing activity. In general activation of the NRF2-ARE pathway in the C6 cells was similar to that seen in the CHO cell line. […].

[10] = system: HO-1 and NQO-1 transcripts; assay: In vivo pharmacodynamics, QRT-PCR for HO-1 and NQO-1 in mice; settings: mouse
G93A mouse model of ALS = settings: higher doses, once a day, orally from 60 days of age; prior art; cited from earlier work
[11] = system: motor neuronal cell line expressing mutant (G93A) human SOD1; settings: prior art; cited from earlier work
[12] = system: 1321N1 (human) astrocytic line
Procedure: as §2, §3

[13] = system: NSC34 mouse motor neuronal cells
Procedure: as §2, §3

C6 (rat) astrocytic line [14] = system: C6 (rat) astrocytic line
Procedure: as §2, §3

[15] = Cricetulus griseus, 24 h, read-out: Average EC50

IC50 [5]: 501 nM
IC50 (C6 (rat) astrocytic line [6]): 192 nM
Compound: C=C1CC[C@@H]2[C@](C)(CO)[C@H](O)CC[C@@]2(C)[C@@H]1C/C=C1/C(=O)OC[C@H]1O [Andrographolide]
Haem oxygenase 1 and NQO1 gene expression ([1]; C6 cells, 24 h, EC50 and EC90 concentrations): statistically significant changes in gene expression
transcripts for NQO1 and HO1 ([2]; G93A mutant SOD1 astrocytes, 24 hour pre-treatment, EC90 concentrations): significant increase
Lowest dose with toxicity [3]: 10 µM
reduction in motor neurone number after menadione ([4]; 24 h pre-treatment, 6 hours 10 μM menadione, DMSO control approximately 25% reduction): not seen
Lowest dose with toxicity [5]: 10 µM
Lowest dose with toxicity (C6 (rat) astrocytic line [6]): 10 µM
Lowest dose with toxicity ([7]; Chinese hamster, 24 h): 100 µM
EC50 ([7]; Cricetulus griseus, 24 h, read-out: Average EC50, CHO 4×ARE-TK-GFP, GFP induction, 24 h): 740 nM
maximal fold induction ([7]; Cricetulus griseus, 24 h): 3.61
EC50 ([7]; Cricetulus griseus, CHO ARE reporter): 740 nM

Compound: CN1CCc2cccc3c2[C@H]1Cc1ccc(O)c(O)c1-3.Cl (single isomer, unassigned) [S[+] apomorphine, S [+] apomorphine]
Haem oxygenase 1 and NQO1 gene expression [1]: statistically significant changes in gene expression
transcripts for NQO1 and HO1 [2]: significant increase
reduction in motor neurone number after menadione [4]: not seen
levels of the compound in plasma, brain and cerebral spinal fluid [8]: detected
NRF2-ARE activation in C6 reporter cell line [9]: equally potent
induction of HO-1 and NQO-1 transcripts [10]: significant induction

Compound: O=C(O[C@@H]1Cc2c(O)cc(O)cc2O[C@@H]1c1cc(O)c(O)c(O)c1)c1cc(O)c(O)c(O)c1 [EGCG, catechin-(−) epigallocatechin-3-gallate, reference compound]
survival (G93A mouse model of ALS): significant extension in survival
fluorescence in the control TK-GFP cell line ([7]; control TK-GFP CHO cell line): No increase in fluorescence
concentration of peak ARE activation (GFP expression) ([7]; narrow window, 24 h, serum free medium): 100 µM
concentration giving partial protection from H2O2 induced cell death [11]: greater than 20 μM

Compound: C[C@@H]1C(=O)O[C@H]2[C@H]1CC[C@@]1(C)C=CC(=O)[C@@]3(C)O[C@@]213 [epoxy(4,5α)-4,5-dihydrosantonin]
Maximal % reduction in Oxidative stress [3]: 0%
IC50 [5]: 662 nM
Maximal % reduction in Oxidative stress [5]: 63%
IC50 (C6 (rat) astrocytic line [6]): 2130 nM
Maximal % reduction in Oxidative stress (C6 (rat) astrocytic line [6]): 62%
Lowest dose with toxicity [12]: none
Lowest dose with toxicity [13]: 3 µM
Average fold GFP induction at maximal response ([7]; CHO 4×ARE-TK-GFP, 24 h): 2.91 fold
Lowest dose with toxicity ([7]; CHO ARE reporter assay): 100 µM
EC50 ([7]; read-out: Average EC50, CHO 4×ARE-TK-GFP, GFP induction, 24 h): 18200 nM
Lowest dose with toxicity (C6 (rat) astrocytic line [14]): none

Compound: CC(C)N(C(=O)CCl)c1ccccc1 [Propachlor]
IC50 [5]: 829 nM
IC50 (C6 (rat) astrocytic line [6]): 645 nM
Lowest dose with toxicity ([12]; human, 24 h): 10 µM
Lowest dose with toxicity ([13]; mouse, 24 h): 10 µM
Lowest dose with toxicity ([7]; Chinese hamster, 24 h): 100 µM
EC50 [7, 15]: 1490 nM
maximal fold induction ([7]; Cricetulus griseus, 24 h): 3.25
Lowest dose with toxicity (C6 (rat) astrocytic line [14]; rat, 24 h): 10 µM

Compound: CC(=O)OC1CC[C@@]2(C)C(CC[C@H]3[C@@H]4CC=C(C(C)=O)[C@@]4(C)C(=O)C[C@@H]32)C1 (stereo partly drawn) [3 acetoxypregn-16-en-12,20-dione]
IC50 [5]: ~12400 nM
Lowest dose with toxicity [12]: none
Lowest dose with toxicity [13]: none
Lowest dose with toxicity ([7]; Chinese hamster, 24 h): 30 µM
maximal fold induction ([7]; Cricetulus griseus, 24 h): 3.14
Lowest dose with toxicity (C6 (rat) astrocytic line [14]): none

Compound: 3-alpha-hydroxygedinin
Maximal % reduction in Oxidative stress [3]: 14%
Maximal % reduction in Oxidative stress [5]: 25%
IC50 (C6 (rat) astrocytic line [6]): 3220 nM
Maximal % reduction in Oxidative stress (C6 (rat) astrocytic line [6]): 42%
Average fold GFP induction at maximal response ([7]; CHO 4×ARE-TK-GFP, 24 h): 3.01 fold
Lowest dose with toxicity ([7]; CHO ARE reporter assay): 100 µM

Compound: COc1ccc(/C=C/C(=O)c2ccccc2)cc1 [4 methoxychalcone]
Lowest dose with toxicity [3]: none
Lowest dose with toxicity [5]: none
IC50 [5]: 3600 nM
Lowest dose with toxicity (C6 (rat) astrocytic line [6]): none
IC50 (C6 (rat) astrocytic line [6]): 3550 nM
Lowest dose with toxicity ([7]; CHO ARE reporter assay): 100 µM
EC50 [7, 15]: 15000 nM
maximal fold induction ([7]; Cricetulus griseus, 24 h): 2.13

Compound: COc1cc(O)c(C)c(O)c1 [2,6-dihydroxy-4-methoxytoluene]
Lowest dose with toxicity [3]: none
Lowest dose with toxicity [5]: none
Lowest dose with toxicity (C6 (rat) astrocytic line [6]): 10 µM
Lowest dose with toxicity ([7]; Chinese hamster, 24 h): 100 µM
maximal fold induction ([7]; Cricetulus griseus, 24 h): 3.05
